ChEMBL document CHEMBL6115029, “Discovery of Daraxonrasib (RMC-6236), a Potent and Orally Bioavailable RAS(ON) Multi-selective, Noncovalent Tri-complex Inhibitor for the Treatment of Patients with Multiple RAS-Addicted Cancers” (J Med Chem, 2025)
In brackets after ≈: the same amount, converted by molar mass.

What was measured:
[1] = Inhibition of ERK1/2 phosphorylation in human NCI-H358 cells harboring KRAS G12C mutant incubated for 4 hrs by AlphaLISA assay; type: cell-based; conditions: NCI-H358, 4 h
[2] = Inhibition of ERK1/2 phosphorylation in human ASPC1 cells harboring KRAS G12D mutant incubated for 4 hrs by AlphaLISA assay; type: cell-based; conditions: ASPC1, 4 h
[3] = Lipophilicity, logD of compound at pH 7.4 by Agilent 1290 II uPLC analysis; type: physicochemical; conditions: buffer
[4] = Inhibition of 6His-tagged KRAS G12D mutant(1 to 169 residues)/GST-tagged GMPPNP-bound BRAF RBD (155 to 229 reisudes)/Cyclophilin A (unknown origin) tri-complex protein-protein interaction incubated for 3 hrs by TR-FERT based disruption assay; set-up: species or system Homo sapiens
[5] = system: CAPAN-1; experiment: Cytotoxicity against human CAPAN-1 cells harboring KRAS G12V mutant cultured as 2D cells assessed as reduction in cell viability incubated for 120 hrs by CellTiter-Glo luminescence assay; type: functional, cell-based; conditions: CAPAN-1, 120 h
[6] = Inhibition of ERK1/2 phosphorylation in human CAPAN-1 cells harboring KRAS G12V mutant incubated for 4 hrs by AlphaLISA assay; type: cell-based; conditions: CAPAN-1, 4 h
[7] = Inhibition of 6His-tagged KRAS G12V mutant(1 to 169 residues)/GST-tagged GMPPNP-bound BRAF RBD (155 to 229 reisudes)/Cyclophilin A (unknown origin) tri-complex protein-protein interaction incubated for 3 hrs by TR-FERT based disruption assay; set-up: species or system Homo sapiens
[8] = system: ASPC1; experiment: Cytotoxicity against human ASPC1 cells harboring KRAS G12D mutant cultured as 2D cells assessed as reduction in cell viability incubated for 120 hrs by CellTiter-Glo luminescence assay; type: functional, cell-based; conditions: ASPC1, 120 h
[9] = Oral bioavailability in female BALB/c mouse at 10 mg/kg measured after 24 hrs by LC-MS/MS analysis; type: ADME, organism-based; conditions: in vivo
[10] = system: NCI-H1975; experiment: Cytotoxicity against human NCI-H1975 cells harboring wildtype KRAS cultured as 2D cells assessed as reduction in cell viability incubated for 120 hrs by CellTiter-Glo luminescence assay; type: functional, cell-based; conditions: NCI-H1975, 120 h
[11] = target: Peptidyl-prolyl cis-trans isomerase A (Homo sapiens, UniProt P62937); experiment: Binding affinity to Avi-tagged Cyclophilin A (unknown origin) assessed as dissociation constant by SPR analysis
[12] = Inhibition of 6His-tagged KRAS G12C mutant(1 to 169 residues)/GST-tagged GMPPNP-bound BRAF RBD (155 to 229 reisudes)/Cyclophilin A (unknown origin) tri-complex protein-protein interaction incubated for 3 hrs by TR-FERT based disruption assay; set-up: species or system Homo sapiens
[13] = Clearance in female BALB/c mouse at 1 mg/kg, iv measured after 24 hrs by LC-MS/MS analysis; type: ADME, organism-based; conditions: in vivo
[14] = Inhibition of 6His-tagged wildtype KRAS (1 to 169 residues)/GST-tagged GMPPNP-bound BRAF RBD (155 to 229 reisudes)/Cyclophilin A (unknown origin) tri-complex protein-protein interaction incubated for 3 hrs by TR-FERT based disruption assay; set-up: species or system Homo sapiens
[15] = Half-life in female BALB/c mouse at 1 mg/kg, iv measured after 24 hrs by LC-MS/MS analysis; type: ADME, organism-based; conditions: in vivo
[16] = Kinetic solubility of compound in PBS at pH 7.4 measured after 5 hrs by UV analysis; type: physicochemical; conditions: read-out: Kinetic_solubility
[17] = Metabolic stability in mouse liver microsomes assessed as half-life at 2 uM measured upto 60 mins in presence of NADPH by LC-MS/MS analysis; type: ADME, Microsome
[18] = system: A-375; experiment: Cytotoxicity against human A-375 cells assessed as reduction in cell viability incubated for 120 hrs by CellTiter-Glo luminescence assay; type: functional, cell-based; conditions: A-375, 120 h
[19] = Kinetic solubility of compound in PBS at pH 5.0 measured after 5 hrs by UV analysis; type: physicochemical; conditions: read-out: Kinetic_solubility
[20] = Apparent permeability across apical to basolateral side in human Caco-2 cells at 5 uM incubated for 2 hrs by LC-MS/MS analysis; type: ADME, cell-based
[21] = Efflux ratio of apparent permeability in human Caco-2 cells at 5 uM incubated for 2 hrs by LC-MS/MS analysis; type: ADME, cell-based
[22] = system: NCI-H358; experiment: Cytotoxicity against human NCI-H358 cells harboring KRAS G12C mutant cultured as 2D cells assessed as reduction in cell viability incubated for 120 hrs by CellTiter-Glo luminescence assay; type: functional, cell-based; conditions: NCI-H358, 120 h
[23] = (§1) In vivo inhibition of MAPK signaling pathway in female BALB/c nude mouse xenografted with human NCI-H441 cells harboring wildtype KRAS/KRAS G12V mutant assessed as decrease in DUSP6 mRNA expression in tumor at 100 mg/kg, po administered as single dose and measured after 2 hrs by qPCR analysis relative to control; type: functional
[24] = as §1, with “200” for “100”; type: functional
[25] = Binding affinity to Cyclophilin A/Avi-tagged KRAS G12V mutant (1 to 169 residues) (unknown origin) assessed as dissociation constant by SPR analysis; set-up: species or system Homo sapiens
[26] = Binding affinity to Cyclophilin A/Avi-tagged KRAS G12C mutant (1 to 169 residues) (unknown origin) assessed as dissociation constant by SPR analysis; set-up: species or system Homo sapiens
[27] = Binding affinity to Cyclophilin A/Avi-tagged KRAS G12D mutant (1 to 169 residues) (unknown origin) assessed as dissociation constant by SPR analysis; set-up: species or system Homo sapiens
[28] = Clearance in female BALB/c mouse plasma at 1 mg/kg, iv measured after 24 hrs by LC-MS/MS analysis; type: ADME, organism-based
[29] = Clearance in female BALB/c mouse blood at 1 mg/kg, iv measured after 24 hrs by LC-MS/MS analysis; type: ADME, organism-based
[30] = Oral bioavailability in female BALB/c mouse blood at 10 mg/kg measured after 24 hrs by LC-MS/MS analysis; type: ADME, organism-based
[31] = Oral bioavailability in female BALB/c mouse plasma at 10 mg/kg measured after 24 hrs by LC-MS/MS analysis; type: ADME, organism-based
[32] = Inhibition of 6His-tagged wildtype NRAS (1 to 169 residues)/GST-tagged GMPPNP-bound BRAF RBD (155 to 229 reisudes)/Cyclophilin A (unknown origin) tri-complex protein-protein interaction incubated for 3 hrs by TR-FERT based disruption assay; set-up: species or system Homo sapiens
[33] = Inhibition of 6His-tagged KRAS G12R mutant(1 to 169 residues)/GST-tagged GMPPNP-bound BRAF RBD (155 to 229 reisudes)/Cyclophilin A (unknown origin) tri-complex protein-protein interaction incubated for 3 hrs by TR-FERT based disruption assay; set-up: species or system Homo sapiens
[34] = Inhibition of 6His-tagged NRAS G61K mutant(1 to 169 residues)/GST-tagged GMPPNP-bound BRAF RBD (155 to 229 reisudes)/Cyclophilin A (unknown origin) tri-complex protein-protein interaction incubated for 3 hrs by TR-FERT based disruption assay; set-up: species or system Homo sapiens
[35] = Inhibition of 6His-tagged wildtype HRAS (1 to 169 residues)/GST-tagged GMPPNP-bound BRAF RBD (155 to 229 reisudes)/Cyclophilin A (unknown origin) tri-complex protein-protein interaction incubated for 3 hrs by TR-FERT based disruption assay; set-up: species or system Homo sapiens
[36] = Inhibition of 6His-tagged KRAS G61H mutant(1 to 169 residues)/GST-tagged GMPPNP-bound BRAF RBD (155 to 229 reisudes)/Cyclophilin A (unknown origin) tri-complex protein-protein interaction incubated for 3 hrs by TR-FERT based disruption assay; set-up: species or system Homo sapiens

Peptidyl-prolyl cis-trans isomerase A, sequence (P62937 whole entry, the tested form may be a part): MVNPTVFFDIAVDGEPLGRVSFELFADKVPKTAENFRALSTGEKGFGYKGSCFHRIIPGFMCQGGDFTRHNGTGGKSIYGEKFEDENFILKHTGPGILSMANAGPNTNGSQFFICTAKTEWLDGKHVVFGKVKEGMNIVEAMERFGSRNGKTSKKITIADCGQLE

SMILES	EC50 [1]	EC50 [2]	logD [3]	IC50 [4]	EC50 [5]	EC50 [6]	IC50 [7]	EC50 [8]	bioavailability [9]	EC50 [10]	Kd [11]	IC50 [12]	clearance [13]	IC50 [14]	solubility kinetic at 5 h [16]	half-life at 2 µM [17]	EC50 [18]	Papp A→B at 2 h, 5 µM [20]	efflux ratio at 2 h, 5 µM [21]	EC50 [22]	also measured
CCn1c(-c2cccnc2[C@H](C)OC)c2c3cc(ccc31)-c1csc(n1)C[C@H](NC(=O)[C@H]1C[C@@H]1C)C(=O)N1CCC[C@H](N1)C(=O)OCC(C)(C)C2	68 nM	818 nM	4.7	927 nM	129 nM	25 nM	165 nM	236 nM	75%	69 nM	1760 nM	117 nM	10 mL/min/kg	344 nM	3 µM (≈ 2.14 µg/mL)	53 min	8.37 µM	10.7 ×10⁻⁶ cm/s	1	83 nM	half-life [15]: 54 min; solubility kinetic at 5 h [19]: < 2 µM
CCn1c(-c2cccnc2[C@H](C)OC)c2c3cc(ccc31)-c1csc(n1)C[C@H](NC(=O)[C@H](C(C)C)N(C)C(=O)N1CC(OC)C1)C(=O)N1CCC[C@H](N1)C(=O)OCC(C)(C)C2	5 nM	61 nM	4.8	1160 nM	16 nM	3 nM	–	–	17%	22 nM	283 nM	78 nM	33.3 mL/min/kg	200 nM	12 µM (≈ 10.3 µg/mL)	19 min	> 10 µM	0.6 ×10⁻⁶ cm/s	9.6	7 nM	inhibition in vivo at 100 mg/kg [23]: 87%; inhibition in vivo at 200 mg/kg [24]: 94%; IC50 [8]: 76 nM; half-life [15]: 90 min
CCn1c(-c2cccnc2[C@H](C)OC)c2c3cc(ccc31)-c1csc(n1)C[C@H](NC(=O)[C@H](C(C)C)N(C)C(C)=O)C(=O)N1CCC[C@H](N1)C(=O)OCC(C)(C)C2	116 nM	857 nM	–	≥ 21200 nM	149 nM	32 nM	3550 nM	≥ 715 nM	≤ 0.4%	57 nM	313 nM	1970 nM	95 mL/min/kg	4920 nM	6 µM (≈ 4.72 µg/mL)	6 min	> 10 µM	0.02 ×10⁻⁶ cm/s	13.6	199 nM	Kd [25]: 2.7 µM; half-life [15]: 36 min; Kd [26]: 1540 nM; Kd [27]: 5.05 µM
CCn1c(-c2cccnc2[C@H](C)OC)c2c3cc(ccc31)-c1cccc(c1)C[C@H](NC(=O)[C@H](C(C)C)N(C)C(C)=O)C(=O)N1CCC[C@H](N1)C(=O)OCC(C)(C)C2	–	–	–	26100 nM	1140 nM	–	3520 nM	4410 nM	–	> 10000 nM	1150 nM	2040 nM	–	–	–	–	–	–	–	1530 nM	Kd [25]: 4.93 µM; Kd [26]: 2820 nM; Kd [27]: 10.7 µM
CCn1c(-c2cc(N3CCN(CCOC)CC3)cnc2[C@H](C)OC)c2c3cc(ccc31)-c1csc(n1)C[C@H](NC(=O)[C@H]1C[C@@H]1C)C(=O)N1CCC[C@H](N1)C(=O)OCC(C)(C)C2	3.4 nM	7.7 nM	4.7	385 nM	2.8 nM	0.8 nM	78 nM	6.1 nM	–	9.4 nM	130 nM	54 nM	–	152 nM	45 µM (≈ 38.5 µg/mL)	103 min	> 10 µM	1 ×10⁻⁶ cm/s	9	1.8 nM	clearance [28]: 30 mL/min/kg; clearance [29]: 6.67 mL/min/kg; bioavailability [30]: 71%; bioavailability [31]: 57%
CCn1c(-c2cc(N3CCN(C4CC4)CC3)cnc2[C@H](C)OC)c2c3cc(ccc31)-c1csc(n1)C[C@H](NC(=O)[C@H]1[C@@H]3COC[C@@H]31)C(=O)N1CCC[C@H](N1)C(=O)OCC(C)(C)C2	0.9 nM	4.1 nM	5.2	175 nM	2.1 nM	0.5 nM	43 nM	4.9 nM	–	1.9 nM	216 nM	31 nM	–	76 nM	20 µM (≈ 17.3 µg/mL)	60 min	8.37 µM	0.9 ×10⁻⁶ cm/s	7	0.8 nM	clearance [28]: 6.67 mL/min/kg; clearance [29]: 6.67 mL/min/kg; bioavailability [30]: 63%; bioavailability [31]: 88%
CCn1c(-c2cccnc2[C@H](C)OC)c2c3cc(ccc31)-c1cccc(c1)C[C@H](NC(=O)[C@H](C(C)C)N(C)C(=O)[C@H]1CCN(C(C)=O)C1)C(=O)N1CCC[C@H](N1)C(=O)OCC(C)(C)C2	–	–	–	12900 nM	948 nM	–	4400 nM	1860 nM	–	1140 nM	897 nM	1600 nM	–	5100 nM	–	–	–	–	–	1090 nM	Kd [25]: 5.83 µM; IC50 [32]: 3.2 µM; IC50 [33]: 8.4 µM; IC50 [34]: 3.5 µM; IC50 [35]: 3.5 µM; Kd [26]: 2050 nM; Kd [27]: 3.55 µM; IC50 [36]: 1300 nM
